Source: patent US20050147691A1, “Catalytic oxidation of peroxy salts” (priority 2002, published 2005)

Conditions: DPS 1 mM, ambient temperature
Method: The oxidation performance of the oxidizer or oxidizer based formulations was determined by fading of the crystal violet dye solution color. The fading of the color was monitored by measuring the UV absorbance of the dye solution at 589 nm, before and after addition of oxidizer or oxidizer based formulation. The change in absorbance or fading of color of the dye solution, corresponds to the oxidation activity of the oxidizer. The greater the change in absorbance, more reactive is the oxidizer composition.
The oxidation activity was determined by measuring the destruction of crystal violet dye color at a wavelength of 589 nm by these formulations.
Crystal Violet Dye solution: Prepare crystal violet dye solution by dissolving 5 mg of crystal violet dye in 1000 mls of deionized water. Dilute the solution accordingly to get a sharp peak at 589 nm.
Procedure: • 1. […] Into 1500 mls beaker add 1000 mls of crystal violet dye solution. • 3. Using Hach spectrophotometer measure initial absorbance of the dye solution at 589 nm. • 4. […] Measure the absorbance at 589 nm after 1 and 2 hours reaction time. • 6. Calculate the percent decrease in crystal violet dye absorbance at 589 nm using the formula: [formula] Where Absi=Absorbance of crystal violet dye solution at the start of the experiment […]

Row | Compound | effect on the oxidation performance of sodium dipersulfate, in words
1 | O.O.O.O.O.O=S(=O)([O-])[O-].[Cu+2] [copper sulfate, copper sulfate pentahydrate] | increased
2 | O.O.O.O.O.O.O.O=S(=O)([O-])[O-].[Zn+2] [zinc sulfate, zinc sulfate heptahydrate] | no effect
